From ChEMBL document CHEMBL1201862, “PubChem BioAssay data set” (2004)
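Step 1: Grow cells in 96-well plates. Step 2: Expose to compound for 48 hours at 5 concentrations. Step 3: Interpolate endpoints linearly; if unreached, use highest concentration. GI50: concentration for 50% inhibition of growth.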 The source made the active and inactive calls. Cut-off read from the data, not from the text of the source: active = GI50 up to about 1.1 µM and inactive = higher.

What was measured:
Assay in all cases: NCI anticancer screen, dose series, 48 h
HOP-62 = test system: HOP-62
OVCAR-3 = test system: OVCAR-3
SN12C = test system: SN12C
EKVX = test system: EKVX
HOP-92 = test system: HOP-92
OVCAR-4 = test system: OVCAR-4
UO-31 = test system: UO-31
A549 = test system: A549
OVCAR-8 = test system: OVCAR-8
UACC-257 = test system: UACC-257
M14 = test system: M14
COLO 205 = test system: COLO 205
SW-620 = test system: SW-620
SNB-19 = test system: SNB-19
HT-29 = test system: HT-29
UACC-62 = test system: UACC-62
SK-OV-3 = test system: SK-OV-3
KM12 = test system: KM12
TK-10 = test system: TK-10
U-251 = test system: U-251

Compound	GI50 (HOP-62)	GI50 (OVCAR-3)	GI50 (SN12C)	GI50 (EKVX)	GI50 (HOP-92)	GI50 (OVCAR-4)	GI50 (UO-31)	GI50 (A549)	GI50 (OVCAR-8)	GI50 (UACC-257)	GI50 (M14)	GI50 (COLO 205)	GI50 (SW-620)	GI50 (SNB-19)	GI50 (HT-29)	GI50 (UACC-62)	GI50 (SK-OV-3)	GI50 (KM12)	GI50 (TK-10)	GI50 (U-251)
COc1cccc(C2c3cc4c(cc3OC(N3CCOCC3)C2C)OCO4)c1 (configuration not stated)	16.2 µM (inactive)	7.74 µM (inactive)	24.3 µM (inactive)	26.7 µM (inactive)	25.5 µM (inactive)	14.7 µM (inactive)	12.8 µM (inactive)	12.9 µM (inactive)	23.4 µM (inactive)	14.8 µM (inactive)	7.05 µM (inactive)	11.3 µM (inactive)	3.19 µM (inactive)	20.5 µM (inactive)	4.68 µM (inactive)	8.47 µM (inactive)	17.9 µM (inactive)			
O=C(Nc1ccc(Cl)c(Cl)c1)C(=O)C(C(=O)c1ccccc1F)C1OC(=O)c2ccccc21 (configuration not stated)	23.4 µM (inactive)		19.2 µM (inactive)	22.4 µM (inactive)	51.6 µM (inactive)	22.3 µM (inactive)	18.8 µM (inactive)	27.8 µM (inactive)	15.2 µM (inactive)	40.8 µM (inactive)	16.4 µM (inactive)	16.1 µM (inactive)	23.9 µM (inactive)	17.5 µM (inactive)	34.4 µM (inactive)	14.8 µM (inactive)	27.7 µM (inactive)	20 µM (inactive)	38.8 µM (inactive)	12.7 µM (inactive)
NC(=O)OCC(COc1ccc(Cl)cc1)OC(=O)c1cc([N+](=O)[O-])cc([N+](=O)[O-])c1 (configuration not stated)	> 100 µM (inactive)	> 100 µM (inactive)	> 100 µM (inactive)	> 100 µM (inactive)	> 100 µM (inactive)		> 100 µM (inactive)	> 100 µM (inactive)	> 100 µM (inactive)	> 100 µM (inactive)	> 100 µM (inactive)	39 µM (inactive)	13.2 µM (inactive)	> 100 µM (inactive)	> 100 µM (inactive)	> 100 µM (inactive)	> 100 µM (inactive)	> 100 µM (inactive)	> 100 µM (inactive)	> 100 µM (inactive)
O=C1C(Cl)C2(CC(/C=C/c3cccs3)=NN2c2cccc(S(=O)(=O)O)c2)N1c1nc2ccccc2s1 (configuration not stated)			> 100 µM (inactive)	24.2 µM (inactive)	1.79 µM (inactive)	71.3 µM (inactive)	10.9 µM (inactive)	42 µM (inactive)	41.7 µM (inactive)	76.9 µM (inactive)	99.3 µM (inactive)	> 100 µM (inactive)	> 100 µM (inactive)	> 100 µM (inactive)	73.5 µM (inactive)	59.6 µM (inactive)		> 100 µM (inactive)	19.3 µM (inactive)	99.8 µM (inactive)
NCC(Cl)C(O)c1c[nH]c(N)n1 (configuration not stated)	0.371 µM (active)	2.03 µM (inactive)	2.12 µM (inactive)	0.502 µM (active)	5.46 µM (inactive)	0.668 µM (active)	0.822 µM (active)	0.136 µM (active)	0.546 µM (active)	3.05 µM (inactive)		0.306 µM (active)	0.37 µM (active)	1.16 µM (inactive)	0.454 µM (active)	3.01 µM (inactive)	0.533 µM (active)	0.117 µM (active)		1.03 µM (active)
O=C(/C(=C/c1ccc(Cl)cc1)c1ccccc1)c1ccccc1	25.9 µM (inactive)		16.7 µM (inactive)	26.5 µM (inactive)	13.9 µM (inactive)	18 µM (inactive)	27 µM (inactive)		20.3 µM (inactive)	13.6 µM (inactive)	16.3 µM (inactive)	18.8 µM (inactive)	17.4 µM (inactive)		18 µM (inactive)	15.6 µM (inactive)	23.9 µM (inactive)	16.9 µM (inactive)	25.4 µM (inactive)	17 µM (inactive)
COc1ccc(/C=N\N2CC(=O)N3C4C=CC(CC4)N3C2=O)cc1 (configuration not stated)	46.7 µM (inactive)	> 100 µM (inactive)	> 100 µM (inactive)	> 100 µM (inactive)	> 100 µM (inactive)		> 100 µM (inactive)	> 100 µM (inactive)	58.1 µM (inactive)	> 100 µM (inactive)	> 100 µM (inactive)	> 100 µM (inactive)	> 100 µM (inactive)	> 100 µM (inactive)	> 100 µM (inactive)	74.8 µM (inactive)	> 100 µM (inactive)	> 100 µM (inactive)	> 100 µM (inactive)	> 100 µM (inactive)
O=C(NC(Cc1ccc(Cl)cc1)C(=O)O)c1ccc(I)cc1 (configuration not stated)	> 100 µM (inactive)	76.7 µM (inactive)	> 100 µM (inactive)		> 83.4 µM (inactive)	> 100 µM (inactive)	> 100 µM (inactive)	> 100 µM (inactive)	> 100 µM (inactive)	> 100 µM (inactive)		> 100 µM (inactive)	> 100 µM (inactive)	> 100 µM (inactive)	> 100 µM (inactive)	64.9 µM (inactive)	> 100 µM (inactive)	> 100 µM (inactive)		> 100 µM (inactive)
CC1CC(c2ccccc2)=Nc2ccccc2S1 (configuration not stated)	> 100 µM (inactive)		> 100 µM (inactive)	72.8 µM (inactive)	> 100 µM (inactive)	> 100 µM (inactive)	> 100 µM (inactive)	> 100 µM (inactive)	> 100 µM (inactive)	> 100 µM (inactive)	> 100 µM (inactive)	> 100 µM (inactive)	> 100 µM (inactive)	> 100 µM (inactive)	> 100 µM (inactive)	> 100 µM (inactive)	> 100 µM (inactive)	> 100 µM (inactive)	> 100 µM (inactive)	44.1 µM (inactive)
O=C(Cc1ccccc1)N/N=C(/c1nc2ccc([N+](=O)[O-])cc2nc1O)C(O)c1ccccc1Cl (configuration not stated)	> 100 µM (inactive)		> 100 µM (inactive)	> 100 µM (inactive)	> 100 µM (inactive)	> 100 µM (inactive)	> 100 µM (inactive)	80.2 µM (inactive)	> 100 µM (inactive)	> 100 µM (inactive)	60.8 µM (inactive)	> 100 µM (inactive)	89.9 µM (inactive)		> 100 µM (inactive)	> 100 µM (inactive)	> 100 µM (inactive)	79.3 µM (inactive)	> 100 µM (inactive)	> 100 µM (inactive)
CCOC(=O)CCC1(C(=O)OCC)CCCCC1=O (configuration not stated)	> 100 µM (inactive)	> 100 µM (inactive)		> 100 µM (inactive)	> 100 µM (inactive)		> 100 µM (inactive)	> 100 µM (inactive)	> 100 µM (inactive)	> 100 µM (inactive)		> 100 µM (inactive)	> 100 µM (inactive)	> 100 µM (inactive)	> 100 µM (inactive)		> 100 µM (inactive)	> 100 µM (inactive)	> 100 µM (inactive)	> 100 µM (inactive)
C=C(C)C1Cc2c(cc(O)c3c(=O)c4ccccc4n(C)c23)O1 (configuration not stated)	14.2 µM (inactive)		43.1 µM (inactive)		20.6 µM (inactive)	9.93 µM (inactive)		49.8 µM (inactive)		> 100 µM (inactive)	28.7 µM (inactive)	> 100 µM (inactive)	36 µM (inactive)	13.9 µM (inactive)	> 100 µM (inactive)		25.5 µM (inactive)	> 100 µM (inactive)	17.5 µM (inactive)	56 µM (inactive)
COc1ccc(/C(C#N)=C(/N)SCc2ccccc2Cl)cc1	14.8 µM (inactive)	11.1 µM (inactive)	24.7 µM (inactive)	21.2 µM (inactive)	17.8 µM (inactive)		> 10 µM (inactive)	26.4 µM (inactive)	> 10 µM (inactive)	16.7 µM (inactive)	14.2 µM (inactive)	20.3 µM (inactive)	16.1 µM (inactive)	> 10 µM (inactive)	17.5 µM (inactive)	11.9 µM (inactive)	27.8 µM (inactive)	> 10 µM (inactive)	32.1 µM (inactive)	18.1 µM (inactive)
COc1cc(C2c3cc4c(cc3[C@@H](Nc3cccc(CO)c3)C3COC(=O)[C@H]23)OCO4)cc(OC)c1O (some centres not stated)	0.156 µM (active)	1.32 µM (inactive)	0.558 µM (active)	3.31 µM (inactive)	0.569 µM (active)	6.84 µM (inactive)	0.541 µM (active)	< 0.0281 µM (active)	1.33 µM (inactive)	0.173 µM (active)		1.54 µM (inactive)	1.41 µM (inactive)	0.453 µM (active)	0.984 µM (active)	0.307 µM (active)	1.61 µM (inactive)	1.72 µM (inactive)		0.516 µM (active)
Nc1ncnc2c1ncn2C1C(O)C=C(CO)C1O (configuration not stated)	> 625 µM (inactive)	> 625 µM (inactive)	> 625 µM (inactive)		568 µM (inactive)	> 625 µM (inactive)	> 625 µM (inactive)	> 625 µM (inactive)	> 625 µM (inactive)			> 625 µM (inactive)	> 625 µM (inactive)	> 625 µM (inactive)	> 625 µM (inactive)	> 625 µM (inactive)	> 625 µM (inactive)	> 625 µM (inactive)		
O=c1c2cc(I)ccc2nc(-c2cccs2)n1O	48.9 µM (inactive)	15.6 µM (inactive)	45 µM (inactive)	26.4 µM (inactive)	28.1 µM (inactive)	31.6 µM (inactive)	49 µM (inactive)	22.6 µM (inactive)	38.1 µM (inactive)	59 µM (inactive)	64.3 µM (inactive)	> 100 µM (inactive)	37 µM (inactive)	22.2 µM (inactive)	48.6 µM (inactive)	90.6 µM (inactive)		32.6 µM (inactive)	24.6 µM (inactive)	30.1 µM (inactive)
